{"source": "ChEMBL document CHEMBL1154401", "about": "“Therapeutic effect of nisin Z on subclinical mastitis in lactating cows” (Antimicrob Agents Chemother, 2007)", "key": {"Staphylococcus aureus [1]": {"test_system": "Staphylococcus aureus", "test": "Sensitivity of Staphylococcus aureus isolated from lactating Holstein bovine subclinical mastitis model at 10 ug/disk after 20 hrs", "type": "functional", "settings": "read-out: IZ"}, "Staphylococcus aureus [2]": {"test_system": "Staphylococcus aureus", "test": "Resistance of Staphylococcus aureus isolated from lactating Holstein bovine subclinical mastitis model at 10 ug/disk after 20 hrs", "type": "functional"}, "Bos taurus [3]": {"test_system": "Bos taurus", "test": "Toxicity in intramammary dosed Holstein bovine assessed as increase in somatic cell count in dosed after morning milking by irritancy test", "type": "organism-based", "settings": "cattle, other"}, "Bos taurus [4]": {"test_system": "Bos taurus", "test": "Toxicity in intramammary dosed Holstein bovine assessed as increase in N-acetyl-beta-D-[…] in milk dosed after morning milking by irritancy test", "type": "organism-based", "settings": "cattle, in vivo, other"}, "Bos taurus [5]": {"test_system": "Bos taurus", "test": "Toxicity in Holstein bovine assessed as visible local reaction at 1.25X10'6 IU, intramammary dosed in left hindquarter of mammary gland after morning milking by irritancy test", "type": "organism-based", "settings": "cattle, in vivo, other"}, "Bos taurus [6]": {"test_system": "Bos taurus", "test": "Toxicity in Holstein bovine assessed as decreased milk yeild at 1.25X10'6 IU, intramammary dosed in left hindquarter of mammary gland of mammary gland after morning milking by irritancy test", "type": "organism-based", "settings": "cattle, in vivo, other"}, "Bos taurus [7]": {"test_system": "Bos taurus", "test": "Toxicity in Holstein bovine assessed as visible local reaction at 2.5X10'6 IU, intramammary dosed in right hindquarter of mammary gland after morning milking by irritancy test", "type": "organism-based", "settings": "cattle, in vivo, other"}, "Bos taurus [8]": {"test_system": "Bos taurus", "test": "Toxicity in Holstein bovine assessed as decreased milk yeild at 2.5X10'6 IU, intramammary dosed in right hindquarter of mammary gland after morning milking by irritancy test", "type": "organism-based", "settings": "cattle, in vivo, other"}, "Bos taurus [9]": {"test_system": "Bos taurus", "test": "Toxicity in Holstein bovine assessed as visible local reaction with swollen and tender mammary gland at 5X10'6 IU, intramammary dosed in right forequarter of mammary gland after morning milking by irritancy test", "type": "organism-based", "settings": "cattle, in vivo, other"}, "Bos taurus [10]": {"test_system": "Bos taurus", "test": "Toxicity in Holstein bovine assessed as decreased milk yeild with clots and flakes in milk at 5X10'6 IU, intramammary dosed in right forequarter of mammary gland after morning milking by irritancy test", "type": "organism-based", "settings": "cattle, in vivo, other"}, "Bos taurus [11]": {"test_system": "Bos taurus", "test": "Toxicity in Holstein bovine assessed as visible local reaction at 5X10'6 IU, intramammary dosed in right forequarter of mammary gland after morning milking after 24 hrs by irritancy test", "type": "organism-based", "settings": "cattle, in vivo, other"}, "[12]": {"test": "Drug level in milk of lactating Holstein bovine mastitis model at 2.5X10'6 IU, intramammary administered once daily for 3 days measured after 24 hrs", "type": "ADME, Bos taurus", "settings": "cattle, other"}, "[13]": {"test": "Drug level in milk of lactating Holstein bovine mastitis model at 2.5X10'6 IU, intramammary administered once daily for 3 days measured after 48 hrs", "type": "ADME, Bos taurus", "settings": "cattle, other"}, "[14]": {"test": "Drug level in milk of lactating bovine subclinical mastitis model at 2.5X10'6 IU after 24 hrs", "type": "ADME, Bos taurus", "settings": "cattle"}, "[15]": {"test": "Drug level in milk of lactating bovine subclinical mastitis model at 2.5X10'6 IU after 48 hrs", "type": "ADME, Bos taurus", "settings": "cattle"}, "[16]": {"test": "Drug level in milk of lactating bovine clinical mastitis model at 2.5X10'6 IU, intramammary dosed twice daily for 3 days measured after 12 hrs", "type": "ADME, organism-based, Bos taurus", "settings": "cattle, in vivo, other"}, "Staphylococcus aureus [17]": {"test_system": "Staphylococcus aureus", "test": "Sensitivity of Staphylococcus aureus isolated from lactating Holstein bovine subclinical mastitis model at 30 ug/disk after 20 hrs", "type": "functional", "settings": "read-out: IZ"}, "Staphylococcus aureus [18]": {"test_system": "Staphylococcus aureus", "test": "Resistance of Staphylococcus aureus isolated from lactating Holstein bovine subclinical mastitis model at 30 ug/disk after 20 hrs", "type": "functional"}, "Bos taurus [19]": {"test_system": "Bos taurus", "test": "Antiinflammatory activity in lactating Holstein bovine subclinical mastitis model assessed as reduction in number of mammary gland quarters with somatic cell count of >=5X10'5/ml at 2.5X10'6 IU, intramammary dosed after morning milking measured after 1 week", "type": "functional", "set-up": "scale not given: the % may be the effect or the level left"}, "Bos taurus [20]": {"test_system": "Bos taurus", "test": "Antiinflammatory activity in lactating Holstein bovine subclinical mastitis model assessed as reduction in number of mammary gland quarters with somatic cell count of >=5X10'5/ml at 2.5X10'6 IU, intramammary dosed after morning milking measured after 2 weeks", "type": "functional", "set-up": "scale not given: the % may be the effect or the level left"}, "Bos taurus [21]": {"test_system": "Bos taurus", "test": "Antiinflammatory activity in lactating Holstein bovine subclinical mastitis model assessed as reduction in N-acetyl-beta-D-[…] activity at 2.5X10'6 IU, intramammary dosed after morning milking measured after 1 week", "type": "functional"}, "Bos taurus [22]": {"test_system": "Bos taurus", "test": "Antiinflammatory activity in lactating Holstein bovine subclinical mastitis model assessed as reduction in N-acetyl-beta-D-[…] activity at 2.5X10'6 IU, intramammary dosed after morning milking measured after 2 weeks", "type": "functional"}, "Staphylococcus aureus [23]": {"test_system": "Staphylococcus aureus", "test": "Antibacterial activity against Staphylococcus aureus in lactating Holstein bovine subclinical mastitis model assessed as reduction in intramammary infections at 2.5X10'6 IU, intramammary dosed after morning milking relative to control", "type": "functional", "set-up": "scale not given: the % may be the effect or the level left"}, "Streptococcus agalactiae": {"test_system": "Streptococcus agalactiae", "test": "Antibacterial activity against Streptococcus agalactiae in lactating Holstein bovine subclinical mastitis model assessed as reduction in intramammary infections at 2.5X10'6 IU, intramammary dosed after morning milking relative to control", "type": "functional", "set-up": "scale not given: the % may be the effect or the level left"}, "Staphylococcus aureus [24]": {"test_system": "Staphylococcus aureus", "test": "Antibacterial activity against Staphylococcus aureus isolated from milk of Holstein bovine subclinical mastitis model after 2 hrs", "type": "functional"}, "Staphylococcus": {"test_system": "Staphylococcus", "test": "Antibacterial activity against coagulase-negative Staphylococcus infected in lactating Holstein bovine subclinical mastitis model assessed as reduction in intramammary infections at 2.5X10'6 IU, intramammary dosed after morning milking relative to control", "type": "functional", "set-up": "scale not given: the % may be the effect or the level left"}, "Staphylococcus aureus [25]": {"test_system": "Staphylococcus aureus", "test": "Sensitivity of Staphylococcus aureus isolated from lactating Holstein bovine subclinical mastitis model at 5 ug/disk after 20 hrs", "type": "functional", "settings": "read-out: IZ"}, "Staphylococcus aureus [26]": {"test_system": "Staphylococcus aureus", "test": "Resistance of Staphylococcus aureus isolated from lactating Holstein bovine subclinical mastitis model at 5 ug/disk after 20 hrs", "type": "functional"}, "[27]": {"settings": "Staphylococcus aureus, 20 h, read-out: IZ"}}}
{"molecule": "CC1(C)S[C@@H]2[C@H](NC(=O)Cc3ccccc3)C(=O)N2[C@H]1C(=O)O", "note": "[PENICILLIN G]", "values": [{"measurement": "zone of inhibition at 10 µg/disc", "setting": "Staphylococcus aureus [1]", "result": "≥ 29", "unit": "mm"}, {"measurement": "Activity", "setting": "Staphylococcus aureus [2]", "result": 80, "unit": "%"}, {"measurement": "zone of inhibition at 10 µg/disc", "setting": "Staphylococcus aureus [2]; [27]", "result": "≤ 28", "unit": "mm"}]}
{"molecule": "C=C(NC(=O)[C@@H](NC(=O)[C@H](Cc1c[nH]cn1)NC(=O)[C@@H](NC(=O)[C@H](CO)NC(=O)[C@@H]1CS[C@@H](C)[C@H]2NC(=O)[C@H](C)NC(=O)[C@H](NC(=O)[C@H](CCCCN)NC(=O)[C@H](CCSC)NC(=O)[C@H](CC(N)=O)NC(=O)[C@@H]3CS[C@@H](C)[C@@H](NC(=O)[C@H](CCCCN)NC(=O)[C@@H]4CS[C@@H](C)[C@@H](NC(=O)[C@@H]5CSC[C@@H](NC(=O)/C(=C/C)NC(=O)[C@@H](N)[C@@H](C)CC)C(=O)N[C@@H]([C@@H](C)CC)C(=O)NC(=C)C(=O)N[C@@H](CC(C)C)C(=O)N5)C(=O)N5CCC[C@H]5C(=O)NCC(=O)N4)C(=O)NCC(=O)N[C@@H](C)C(=O)N[C@@H](CC(C)C)C(=O)N[C@@H](CCSC)C(=O)NCC(=O)N3)[C@H](C)SC[C@H](NC2=O)C(=O)N[C@@H](CC(N)=O)C(=O)N1)[C@@H](C)CC)C(C)C)C(=O)N[C@@H](CCCCN)C(=O)O", "values": [{"measurement": "Activity", "setting": "Bos taurus [3]", "result": "Dose-dependent effect"}, {"measurement": "Activity", "setting": "Bos taurus [4]", "result": "Dose-dependent effect"}, {"measurement": "Activity", "setting": "Bos taurus [5]", "result": "Non-toxic"}, {"measurement": "Activity", "setting": "Bos taurus [6]", "result": "Non-toxic"}, {"measurement": "Activity", "setting": "Bos taurus [7]", "result": "Non-toxic"}, {"measurement": "Activity", "setting": "Bos taurus [8]", "result": "Non-toxic"}, {"measurement": "Activity", "setting": "Bos taurus [9]", "result": "Toxic"}, {"measurement": "Activity", "setting": "Bos taurus [10]", "result": "Toxic"}, {"measurement": "Activity", "setting": "Bos taurus [11]", "result": "Toxic"}, {"measurement": "Drug uptake", "setting": "[12]", "result": 75.8, "unit": "IU/ml"}, {"measurement": "Drug uptake", "setting": "[13]", "result": 5.7, "unit": "IU/ml"}, {"measurement": "Activity", "setting": "[14]", "result": 83, "unit": "IU/ml"}, {"measurement": "Drug uptake", "setting": "[15]", "result": 15, "unit": "IU/ml"}, {"measurement": "Drug uptake", "setting": "[16]", "result": 4.5, "unit": "IU/ml"}]}
{"molecule": "Cc1nnc(SCC2=C(C(=O)O)N3C(=O)[C@@H](NC(=O)Cn4cnnn4)[C@H]3SC2)s1", "note": "[CEFAZOLIN]", "values": [{"measurement": "zone of inhibition at 30 µg/disc", "setting": "Staphylococcus aureus [17]", "result": "≥ 18", "unit": "mm"}, {"measurement": "Activity", "setting": "Staphylococcus aureus [18]", "result": 5, "unit": "%"}, {"measurement": "zone of inhibition at 30 µg/disc", "setting": "Staphylococcus aureus [18]; [27]", "result": "≤ 14", "unit": "mm"}]}
{"molecule": "GENTAMICIN", "values": [{"measurement": "Activity", "setting": "Staphylococcus aureus [2]", "result": 45, "unit": "%"}]}
{"molecule": "C=C(NC(=O)[C@@H](NC(=O)[C@H](Cc1cnc[nH]1)NC(=O)[C@@H](NC(=O)[C@H](CO)NC(=O)[C@@H]1CS[C@@H](C)[C@H]2NC(=O)[C@H](C)NC(=O)[C@H](NC(=O)[C@H](CCCCN)NC(=O)[C@H](CCSC)NC(=O)[C@H](CC(N)=O)NC(=O)[C@@H]3CS[C@@H](C)[C@@H](NC(=O)[C@H](CCCCN)NC(=O)[C@@H]4CS[C@@H](C)[C@@H](NC(=O)[C@@H]5CSC[C@@H](NC(=O)/C(=C/C)NC(=O)[C@@H](N)[C@@H](C)CC)C(=O)N[C@@H]([C@@H](C)CC)C(=O)NC(=C)C(=O)N[C@@H](CC(C)C)C(=O)N5)C(=O)N5CCC[C@H]5C(=O)NCC(=O)N4)C(=O)NCC(=O)N[C@@H](C)C(=O)N[C@@H](CC(C)C)C(=O)N[C@@H](CCSC)C(=O)NCC(=O)N3)[C@H](C)SC[C@H](NC2=O)C(=O)N[C@@H](CC(N)=O)C(=O)N1)[C@@H](C)CC)C(C)C)C(=O)N[C@@H](CCCCN)C(=O)O", "values": [{"measurement": "Activity", "setting": "Bos taurus [19]", "result": 58.7, "unit": "%"}, {"measurement": "Activity", "setting": "Bos taurus [20]", "result": 70.5, "unit": "%"}, {"measurement": "Activity", "setting": "Bos taurus [21]", "result": 26.2, "unit": "U/ml"}, {"measurement": "Activity", "setting": "Bos taurus [22]", "result": 28.9, "unit": "U/ml"}, {"measurement": "Activity", "setting": "Staphylococcus aureus [23]", "result": 50, "unit": "%"}, {"measurement": "Activity", "setting": "Streptococcus agalactiae", "result": 90.9, "unit": "%"}, {"measurement": "MIC", "setting": "Staphylococcus aureus [24]", "result": 75.5, "unit": "IU/ml"}, {"measurement": "Activity", "setting": "Staphylococcus", "result": 58.8, "unit": "%"}]}
{"molecule": "CCn1cc(C(=O)O)c(=O)c2cc(F)c(N3CCNCC3)cc21", "note": "[NORFLOXACIN]", "values": [{"measurement": "zone of inhibition at 5 µg/disc", "setting": "Staphylococcus aureus [25]", "result": "≥ 17", "unit": "mm"}, {"measurement": "Activity", "setting": "Staphylococcus aureus [26]", "result": 75, "unit": "%"}, {"measurement": "zone of inhibition at 5 µg/disc", "setting": "Staphylococcus aureus [26]; [27]", "result": "≤ 12", "unit": "mm"}]}
